# Source: patent publication US20260271931A1, “HERBICIDAL MIXTURES” (Bayer Aktiengesellschaft, priority 2023, published 2026)
# Read-outs that look alike come from different tables or passages of the source.
# Columns and labels:
# Assay type in all cases: in vivo
# Bidens pilosa (BIDPI) = assay: Post-emergence action against weeds, greenhouse pot test, visual rating: Bidens pilosa
# Kochia scoparia (KCHSC) = assay: Post-emergence action against weeds, greenhouse pot test, visual rating: Kochia scoparia
# [1] = test system: Sorghum halepense (SORHA); assay: Post-emergence action against weeds, greenhouse pot test, visual rating: Sorghum halepense
# Method: (§1) When the observed efficacies already exceed the formal sum total of the values of the tests with individual applications, they also exceed the expected value according to Colby, which is calculated using the formula below and is likewise regarded as an indication of synergism (cf. S. R. Colby; in Weeds 15 (1967) pp. 20 to 22):
# (§2) where: • A=efficacy of the active ingredient (A) in % at an application rate of a [g a.i./ha]; • B=efficacy of the active ingredient (B) in % at an application rate of b [g a.i./ha]; • E^C=expected value of the effect of the combination (A)+(B) in % at the combined application rate a+b [g a.i./ha].
# (§3) The observed values (E^A) from the experiments, given suitable low dosages, show an effect of the combinations exceeding the expected values according to Colby (E^C) (Δ).
# (§4) Seeds of mono- and dicotyledonous weeds were placed in sandy loam in pots, covered with soil and grown in a greenhouse under good growth conditions (temperature, air humidity, water supply). Two to three weeks after sowing, the test plants were treated at the two- to four-leaf stage with the compositions of the invention. The compositions of the invention, formulated as spray powders or as emulsion concentrates, were sprayed onto the green parts of the plant in various dosages with an application rate equivalent to […] of water. After the test plants had been kept in the greenhouse under optimum growth conditions for 3 weeks, the activity of the preparations was rated visually in comparison to untreated controls.
# (§5) 100% efficacy means complete control of the particular weed tested.
# (§6) 0% efficacy means zero control of the particular weed tested.
# (§7) Expected values according to Colby are reported under E.
# (§8) The exceedance of the expected value E is given as Δ (=synergistic effect).
# (§9) The rating period is reported in days after application (DAT).
# Eleusine indica (ELEIN) = assay: Post-emergence action against weeds, greenhouse pot test, visual rating: Eleusine indica; conditions: Eleusine indica, post-emergence; for pest or weed control at 3 g/ha: 3 g a.i./ha; for pest or weed control at 0.4 g/ha: 0.4 g a.i./ha
# Method: as §1, §2, §3, §4, §5, §6, §7, §8, §9
# [2] = test system: Pharbitis purpurea (PHBPU); assay: Post-emergence action against weeds, greenhouse pot test, visual rating: Pharbitis purpurea
# Method: as §1, §2, §3, §4, §5, §6, §7, §8, §9
# Centaurea cyanus (CENCY) [3] = assay: Post-emergence action against weeds, greenhouse pot test, visual rating: Centaurea cyanus; conditions: 240 h, read-out: Herbicidal effect [%] on CENCY 10 DAT
# Centaurea cyanus (CENCY) [4] = assay: as above
# Method: as §1, §2, §3, §4, §5, §6, §7, §8, §9
# Lolium rigidum (LOLRI) = assay: Post-emergence action against weeds, greenhouse pot test, visual rating: Lolium rigidum
# [5] = test system: Brachiaria platyfylla (BRAPP); assay: Post-emergence action against weeds, greenhouse pot test, visual rating: Brachiaria platyfylla; conditions: post-emergence; for pest or weed control at 3 g/ha: 3 g a.i./ha; for pest or weed control at 0.4 g/ha: 0.4 g a.i./ha
# Method: as §1, §2, §3, §4, §5, §6, §7, §8, §9
# Avena fatua (AVEFA) = assay: Post-emergence action against weeds, greenhouse pot test, visual rating: Avena fatua
# [6] = test system: Echinochloa crus-galli (ECHCG); assay: Post-emergence action against weeds, greenhouse pot test, visual rating: Echinochloa crus-galli; conditions: 1 g a.i./ha
# [7] = 240 h, read-out: Herbicidal effect [%] on ELEIN 10 DAT
# [8] = 504 h, read-out: Herbicidal effect [%] on ELEIN 21 DAT
# [9] = 240 h, read-out: Herbicidal effect [%] on BRAPP 10 DAT
# [10] = 504 h, read-out: Herbicidal effect [%] on BRAPP 21 DAT
structure (smiles),measurement,setting,value
"CS(=O)(=O)c1ccc(C(=O)C2C(=O)CCCC2=O)c(Cl)c1COCC(F)(F)F [Tembotrione, tembotrione]",Herbicidal effect [%] on BIDPI 21 DAT,Bidens pilosa (BIDPI); 3 g a.i./ha,30%
same,Herbicidal effect [%] on KCHSC 10 DAT,Kochia scoparia (KCHSC); 3 g a.i./ha,20%
same,pest or weed control at 3 g/ha,"Kochia scoparia (KCHSC); Bassia scoparia, post-emergence, 504 h, 3 g a.i./ha, read-out: Herbicidal effect [%] on KCHSC 21 DAT",10%
same,Herbicidal effect [%] on SORHA 10 DAT,"[1]; 3 g a.i./ha, 10 DAT",80%
same,Herbicidal effect [%] on SORHA 21 DAT,[1]; 3 g a.i./ha,20%
same,pest or weed control at 3 g/ha,Eleusine indica (ELEIN); [7],60%
same,pest or weed control at 3 g/ha,Eleusine indica (ELEIN); [8],40%
same,Herbicidal effect [%] on PHBPU 21 DAT,[2]; 3 g a.i./ha,30%
same,pest or weed control at 3 g/ha,Centaurea cyanus (CENCY) [3]; 3 g a.i./ha,40%
same,Herbicidal effect [%] on CENCY 21 DAT,Centaurea cyanus (CENCY) [4]; 3 g a.i./ha,30%
same,pest or weed control at 3 g/ha,"Lolium rigidum (LOLRI); Lolium rigidum, 504 h, 3 g a.i./ha, 21 DAT, read-out: Herbicidal effect [%] on LOLRI 21 DAT",20%
same,pest or weed control at 3 g/ha,[5]; [9],40%
same,pest or weed control at 3 g/ha,[5]; [10],20%
"N#Cc1cc(Br)c(O)c(Br)c1 [Bromoxynil, bromoxynil]",Herbicidal effect [%] on BIDPI 10 DAT,Bidens pilosa (BIDPI); 80 g a.i./ha,50%
same,pest or weed control at 80 g/ha,"Avena fatua (AVEFA); Avena fatua, 240 h, 10 DAT, 80 g a.i./ha, read-out: Herbicidal effect [%] on AVEFA 10 DAT",0%
same,pest or weed control at 80 g/ha,"Eleusine indica (ELEIN); 240 h, 80 g a.i./ha, read-out: Herbicidal effect [%] on ELEIN 10 DAT",0%
same,Herbicidal effect [%] on PHBPU 10 DAT,[2]; 80 g a.i./ha,50%
same,pest or weed control at 80 g/ha,Centaurea cyanus (CENCY) [3]; 80 g a.i./ha,30%
"CC(C)N(C)S(=O)(=O)NC(=O)c1cc(-n2c(=O)cc(C(F)(F)F)n(C)c2=O)c(F)cc1Cl [Saflufenacil, saflufenacil]",pest or weed control at 0.4 g/ha,"Avena fatua (AVEFA); Avena fatua, 240 h, 10 DAT, 0.4 g a.i./ha, read-out: Herbicidal effect [%] on AVEFA 10 DAT",10%
same,Herbicidal effect [%] on KCHSC 10 DAT,Kochia scoparia (KCHSC); 0.4 g a.i./ha,10%
same,pest or weed control at 0.4 g/ha,"Kochia scoparia (KCHSC); Bassia scoparia, post-emergence, 504 h, 0.4 g a.i./ha, read-out: Herbicidal effect [%] on KCHSC 21 DAT",10%
same,pest or weed control at 0.4 g/ha,Eleusine indica (ELEIN); [7],30%
same,pest or weed control at 0.4 g/ha,Eleusine indica (ELEIN); [8],0%
same,Herbicidal effect [%] on PHBPU 21 DAT,[2]; 0.4 g a.i./ha,80%
same,pest or weed control at 0.4 g/ha,Centaurea cyanus (CENCY) [3]; 0.4 g a.i./ha,40%
same,Herbicidal effect [%] on CENCY 21 DAT,Centaurea cyanus (CENCY) [4]; 0.4 g a.i./ha,30%
same,Herbicidal effect [%] on LOLRI 10 DAT,"Lolium rigidum (LOLRI); 0.4 g a.i./ha, 10 DAT",10%
same,pest or weed control at 0.4 g/ha,"Lolium rigidum (LOLRI); Lolium rigidum, 504 h, 0.4 g a.i./ha, 21 DAT, read-out: Herbicidal effect [%] on LOLRI 21 DAT",0%
same,pest or weed control at 0.4 g/ha,[5]; [9],10%
same,pest or weed control at 0.4 g/ha,[5]; [10],0%
"CCOC(=O)COc1cc(-c2nn(C)c(OC(F)F)c2Cl)c(F)cc1Cl [Pyraflufen-ethyl, pyraflufen-ethyl]",Herbicidal effect [%] on BIDPI 10 DAT,Bidens pilosa (BIDPI); 7.5 g a.i./ha,88%
same,Herbicidal effect [%] on BIDPI 21 DAT,Bidens pilosa (BIDPI); 7.5 g a.i./ha,80%
same,Herbicidal effect [%] on SORHA 21 DAT,[1]; 7.5 g a.i./ha,10%
same,pest or weed control at […],Eleusine indica (ELEIN); [8],0%
same,pest or weed control at […],Centaurea cyanus (CENCY) [3],88%
same,Herbicidal effect [%] on CENCY 21 DAT,Centaurea cyanus (CENCY) [4]; 7.5 g a.i./ha,88%
"CCC(CC)Nc1c([N+](=O)[O-])cc(C)c(C)c1[N+](=O)[O-] [Pendimethalin, pendimethalin]",pest or weed control at 100 g/ha,"Kochia scoparia (KCHSC); Bassia scoparia, post-emergence, 504 h, 100 g a.i./ha, read-out: Herbicidal effect [%] on KCHSC 21 DAT",10%
same,pest or weed control at 100 g/ha,"Eleusine indica (ELEIN); 504 h, 100 g a.i./ha, read-out: Herbicidal effect [%] on ELEIN 21 DAT",0%
same,pest or weed control at 100 g/ha,Centaurea cyanus (CENCY) [3]; 100 g a.i./ha,0%
"CS(=O)(=O)NC(=O)c1cc(Oc2ccc(C(F)(F)F)cc2Cl)ccc1[N+](=O)[O-] [Fomesafen, fomesafen]",Herbicidal effect [%] on BIDPI 10 DAT,Bidens pilosa (BIDPI); 1.5 g a.i./ha,30%
same,Herbicidal effect [%] on BIDPI 21 DAT,Bidens pilosa (BIDPI); 1.5 g a.i./ha,20%
same,Herbicidal effect [%] on KCHSC 10 DAT,Kochia scoparia (KCHSC); 1.5 g a.i./ha,10%
same,pest or weed control at […],"Kochia scoparia (KCHSC); Bassia scoparia, post-emergence, 504 h, 1.5 g a.i./ha, read-out: Herbicidal effect [%] on KCHSC 21 DAT",0%
same,pest or weed control at […],"Eleusine indica (ELEIN); 504 h, 1.5 g a.i./ha, read-out: Herbicidal effect [%] on ELEIN 21 DAT",0%
same,pest or weed control at […],Centaurea cyanus (CENCY) [3]; 1.5 g a.i./ha,20%
same,Herbicidal effect [%] on CENCY 21 DAT,Centaurea cyanus (CENCY) [4]; 1.5 g a.i./ha,30%
same,pest or weed control at […],"Lolium rigidum (LOLRI); Lolium rigidum, 504 h, 1.5 g a.i./ha, 21 DAT, read-out: Herbicidal effect [%] on LOLRI 21 DAT",0%
same,pest or weed control at […],"[5]; 504 h, 1.5 g a.i./ha, read-out: Herbicidal effect [%] on BRAPP 21 DAT",0%
"COc1cc(OC)nc(NC(=O)NS(=O)(=O)c2cc(NC=O)ccc2C(=O)N(C)C)n1 [Foramsulfuron, foramsulfuron]",Herbicidal effect [%] on BIDPI 10 DAT,Bidens pilosa (BIDPI); 1 g a.i./ha,20%
same,Herbicidal effect [%] on BIDPI 21 DAT,Bidens pilosa (BIDPI); 1 g a.i./ha,30%
same,Herbicidal effect [%] on ECHCG 10 DAT,[6],70%
same,Herbicidal effect [%] on AVEFA 21 DAT,"Avena fatua (AVEFA); 21 DAT, 1 g a.i./ha",70%
same,pest or weed control at 1 g/ha,"Avena fatua (AVEFA); Avena fatua, 240 h, 10 DAT, 1 g a.i./ha, read-out: Herbicidal effect [%] on AVEFA 10 DAT",60%
same,pest or weed control at 1 g/ha,"Kochia scoparia (KCHSC); Bassia scoparia, post-emergence, 504 h, 1 g a.i./ha, read-out: Herbicidal effect [%] on KCHSC 21 DAT",20%
same,Herbicidal effect [%] on SORHA 21 DAT,[1]; 1 g a.i./ha,20%
same,pest or weed control at 1 g/ha,Centaurea cyanus (CENCY) [3]; 1 g a.i./ha,30%
"CSc1nnc(C(C)(C)C)c(=O)n1N [Metribuzin, metribuzin]",pest or weed control at 15 g/ha,"Eleusine indica (ELEIN); 504 h, 15 g a.i./ha, read-out: Herbicidal effect [%] on ELEIN 21 DAT",10%
same,Herbicidal effect [%] on PHBPU 10 DAT,[2]; 15 g a.i./ha,0%
same,pest or weed control at 15 g/ha,Centaurea cyanus (CENCY) [3]; 15 g a.i./ha,0%
same,pest or weed control at 15 g/ha,"Lolium rigidum (LOLRI); Lolium rigidum, 504 h, 15 g a.i./ha, 21 DAT, read-out: Herbicidal effect [%] on LOLRI 21 DAT",0%
